Key:
C2C12 Cells = test: GFP plasmid transfection with DOTMA/DOPE plus surface ligand peptide, fluorescent plate reader (Example 1); format: cell-based, mouse; settings: DOTMA/DOPE + peptide linked to R12 or K16; EF1Alpha eGFP plasmid; 42 hours
Summary of the method: (§1)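 DOTMA/DOPE (1:1 molar) plus peptide bearing a poly-Arg or poly-Lys tag was complexed 10 min with EF1alpha eGFP plasmid in OptiMEM, then added to 70%-confluent cells (0.01 mL fibroblasts; 0.02 mL C2C12, Jurkat). After 42 h at 37 °C, GFP was read by plate reader and compared with DOTMA without ligand.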

HuVec Cells = test: as above; format: cell-based; settings: DOTMA/DOPE + peptide linked to R12 or K16; EF1Alpha eGFP plasmid; 42 hours
Summary of the method: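 HuVEC cells in 96 well plates at 70% confluence were transfected with EF1Alpha eGFP plasmid using a 1:1 molar DOTMA/DOPE lipid mixed with a surface ligand peptide carrying a covalently attached nucleic acid binding moiety. Complexes formed for 10 minutes, 0.01 mL went to each well, cells were incubated 42 hours at 37° C., and fluorescence was read on a plate reader.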

NL-1 iPS Cells = test: as above; format: cell-based; settings: DOTMA/DOPE + peptide linked to R12 or K16; EF1Alpha eGFP plasmid; 42 hours
HeLa Cells [1] = test: as above; format: cell-based; settings: DOTMA/DOPE + peptide linked to R12 or K16; EF1Alpha eGFP plasmid; 42 hours
Human Fibroblast Cells = test: as above; format: cell-based; settings: DOTMA/DOPE + peptide linked to R12 or K16; EF1Alpha eGFP plasmid; 42 hours
Summary of the method: as §1

Jurkat Cells = test: as above; format: cell-based; settings: DOTMA/DOPE + peptide linked to R12 or K16; EF1Alpha eGFP plasmid; 42 hours
Summary of the method: as §1

some examined cell types = test: Summary of Example 1: transfection expression and % cells transfected over the no peptide control; format: cell-based; settings: on some examined cell types
Summary of the method: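 Cells at 70% confluence received DNA complexes of EF1Alpha eGFP plasmid with DOTMA/DOPE (1:1) plus oligo-Arg- or oligo-Lys-tagged peptide ligands, formed 10 min at room temperature. After 42 h at 37 °C, 5% CO2, GFP read by plate reader and % transfected cells judged microscopically, relative to lipid without peptide.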

HeLa Cells [2] = test: GFP transfection with DOTMA/SEQ ID NO: 72 (fusogenic peptide)/peptide compared with Lipofectamine 2000; format: cell-based
Summary of the method: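 DOTMA/DOPE (1:1 molar) lipid mixed with polyarginine- or polylysine-tagged cell-surface-ligand peptide, complexed 10 min with EF1alpha eGFP plasmid at 10 μg/mL in OptiMEM, fusogenic peptide at 0.1 mg/mL final; HeLa cells ~70% confluent given 0.01 mL complex. GFP read by fluorescence plate reader and microscopy (% cells transfected) after 42 h at 37° C; Lipofectamine 2000 as comparator.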

[3] = 0.1 μL of DOTMA/SEQ ID NO: 72/Peptide in well of a 96 well plate
[4] = 0.2 μL of DOTMA/SEQ ID NO: 72/Peptide in well of a 96 well plate
[5] = 0.3 μL of DOTMA/SEQ ID NO: 72/Peptide in well of a 96 well plate
[6] = 0.4 μL of DOTMA/SEQ ID NO: 72/Peptide in well of a 96 well plate

Substance	Relative Fluorescence of Transfection of C2C12 Cells (RF) (C2C12 Cells)	Relative Fluorescence of Transfection of HuVec Cells (RF) (HuVec Cells)	Relative Fluorescence of Transfection of NL-1 iPS Cells (RF) (NL-1 iPS Cells)	Relative Fluorescence of Transfection of HeLa Cells (RF) (HeLa Cells [1])	Relative Fluorescence of Transfection of Human Fibroblast Cells (RF) (Human Fibroblast Cells)	Relative Fluorescence of Transfection of Jurkat Cells (RF) (Jurkat Cells)	transfection expression and % cells transfected over the no peptide control (some examined cell types)	Relative Fluorescence DOTMA/SEQ ID NO: 72/Peptide, HeLa Cells (RF) (HeLa Cells [2]; [3])	Relative Fluorescence DOTMA/SEQ ID NO: 72/Peptide, HeLa Cells (RF) (HeLa Cells [2]; [4])	Relative Fluorescence DOTMA/SEQ ID NO: 72/Peptide, HeLa Cells (RF) (HeLa Cells [2]; [5])	Relative Fluorescence DOTMA/SEQ ID NO: 72/Peptide, HeLa Cells (RF) (HeLa Cells [2]; [6])
348 (HQQDLGTAGSCLRKFSTM) [compound 348]	8625	21214	21645	22289	11802	15585	increased transfection expression and the % cells transfected	17413	18615	16164	15054
237 (KNSFMALYLSKG) [compound 237]	6491	2302	8632	21288	2184	1501	increased transfection expression and the % cells transfected	8986	9753	8015	8288
350 (SIGFRGDGQTC) [compound 350]	2631	13163	19132	13313	7105	9184	increased transfection expression and the % cells transfected	24092	23238	19802	22255
365 (ISRCQVCMKKRH) [compound 365]	5390	14764	6364	36093	5219	5298	increased transfection expression and the % cells transfected	26620	43775	36054	21540
343 (LFSHAVSSNG) [compound 343]	3218	16239	21726	5910	4590	23499	increased transfection expression and the % cells transfected	6961	8626	8577	8160
367 (TDIPPCPHGWISLWK) [compound 367]	16207	13354	17545	39008	10036	4365	increased transfection expression and the % cells transfected	10427	21411	23001	17529
